Consider `O=C(Nc1cnc(-c2ccccc2)nc1C(=O)O)OCc1cc2cc(-c3ccccc3)ccc2o1` [Example 1, 2-Phenyl-5-(5-phenyl-benzofuran-2-ylmethoxycarbonylamino)-pyrimidine-4-carboxylic Acid], for which the melting point was 184 to 185 °C.

The compound `O=C(Nc1nn(-c2ccccc2)cc1C(=O)O)OCc1cc2cc(-c3ccccc3)ccc2o1` [Example 2, 1-Phenyl-3-(5-phenyl-benzofuran-2-ylmethoxycarbonylamino)-1H-pyrazole-4-carboxylic Acid] gave a melting point of 220.6 to 220.8 °C.

`O=C(Nc1cnccc1C(=O)O)OCc1cc2cc(-c3ccccc3)ccc2o1` [Example 3, 3-(5-Phenyl-benzofuran-2-ylmethoxycarbonylamino)-isonicotinic Acid] yielded a melting point of 235.7 to 238.9 °C.

The melting point is the temperature of the solid-liquid transition.

For the origin of these results see US6569860B2, “Alkoxycarbonylamino heteroaryl carboxylic acid derivatives as IP antagonists” (Roćhe Palo Alto LLC, priority 2001, dated 2003).
